In patent US20170143748A1, “ANTI-TUMOR PHARMACEUTICAL APPLICATION OF PENTACYCLIC TRITERPENE SAPONIN COMPOUNDS OF SZECHUAN MELANDIUM ROOT” (priority 2014, published 2017):
Values joined by “and” are separate entries in the source; they are usually repeats but may differ in a detail not shown here. Equal values may be shown once. Read-outs that look alike come from different tables or passages of the source.

How the values were obtained:
HepG2 [1] = assay: MTT inhibition of tumor cells in vitro (Example 3); assay type: cell-based, Human; details: Homo sapiens, HepG2, 48 h, 40 μg/mL, read-out: Inhibition rate, HepG2
HepG2 [2] = assay: Inhibitory activity and IC50 to HepG2 at different time of treatment (MTT, Example 4); assay type: cell-based, Human; details: for IC50 / inhibition at 5 µg/mL / inhibition at 10 µg/mL / inhibition at 20 µg/mL / inhibition at 40 µg/mL / inhibition at 80 µg/mL: Homo sapiens; for IC50: read-out: IC50 to HepG2
Protocol: (§1) Human resources hepatoma cell line HepG2 was provided by Cancer Hospital, Chinese Academy of Medical Sciences. […] Cells were passaged every 2 or 3 days, and all the experiments were carried out on exponentially growing cells.
Cells were harvested in good growth status and cell suspension was prepared with 2×10^4 cells/mL, added 100 μL per well of 96-well plates, and cultured for 24 h in the incubator. 100 μL liquid medium with no cell was added per well as blank group.
3 plates were used as parallel test to culture cells at different period.
Before medication, supernatant of each well was removed and fresh 1640 medium was added, 180 μL per well. […] Wells of blank and model groups were added with 0.5% DMSO, 20 μL per well. After finished adding drugs, cells were incubated for 24 and 48 h respectively. At the end of incubation, 20 μL MTT was added per well […]. The supernatant was removed carefully and 150 μL DMSO was added per well. After shaken for 10 mins, the absorbance was read at 490 nm and the inhibition rate was calculated with the formula below.
Inhibition rate=[(ODmodel−ODblank)−(ODdrugs−ODblank)]/(ODmodel−ODblank)×100%
IC50 was calculated with Bliss method.
The MTT experiment was repeated three times.

HepG2 [3] = assay: Detection of apoptosis (Annexin V-FITC/PI flow cytometry); assay type: cell-based, Human; details: HepG2, 80 μg/mL, 24 hours
Protocol: as §1
Following the incubation of cells in the flasks with drug for 24 hours, cell suspension was harvested with 5×10^5 to 1×10^6 cells/mL, and taken with 1 mL for centrifuging for 10 min at 1000 RPM and 4° C. The supernatant was replaced carefully, added with 1 mL cold phosphate-buffered saline, gently shaken for resuspension, recentrifuged and replaced the supernatant. The cells were resuspended with 200 μl Binding Buffer, added with 10 μl Annexin V-FITC and 5 μl PI, gently shaken and reacted for 15 min at Room temperature, then added with 300 μl Binding Buffer and finally measured immediately with Flow cytometry.

HepG2 human heptoma = assay: Anti-HepG2 human heptoma in BALB/c (nu/nu) nude mice; details: for body weight of HepG2-bearing nude mice / tumor volume of HepG2-bearing nude mice: mg/kg BW: total saponins 1.5, Compound 1, combination 1 & 39, Cytoxan 40, Sc
Protocol: 70 male BALB/c (nu/nu) nude mice (18-20 g, License NO. SCXK (BJ) 2009-0017, National Institutes for Food and Drug Control.) were adaptively bred for one week, and then used in the following experiment.
Human resources hepatoma cell line HepG2 was cultured in RPMI-1640 medium containing 100 U/mL Penicillin and 100 μg/mL Streptomycin with 10% fetal bovine serum and maintained at 37° C. in a humidified atmosphere (5% CO2 and […]).
70 BALB/c (nu/nu) nude mice were adaptively bred for 1 week, HepG2 cells were inoculated subcutaneously into the back of nude mice, 1×10^7 cells per mouse. […] 3 days after inoculation, mice of every therapeutic group were all given the relevant compounds or drugs for 3 weeks, and others were given isodose physiological saline.
The body weight and the size of tumor were measured and recorded weekly. The tumor volume was calculated with the formula below:
tumor volume V=π/6×a×b^2 (a, b means the transverse and longitudinal length of tumor)
At the end of administration, mice were fastened for 8 hours, weighed the fasting body weight, dropped off eyeball to collect blood, centrifuged and collected serum for next experiment. The tumors were departed and weighed. Tumor Index and inhibition rate were calculated as below:
Tumor Index=Tumor mass (mg)/body weight of animal (g)
Inhibition rate=(Average tumor massControl group−Average tumor massadministration group)/Average tumor massControl group×100%
Mice in the model group were injected with sterile water (10 ml/kg BW), Sc. All the animals were treated at 9 am for 3 weeks.
Determination of body weights: Body weights of animals were weighed and recorded once a week.
Tumor measurement: The transverse and longitudinal lengths of tumor were measured with vernier caliper weekly.
End of the experiment: After mice being administrated for 3 weeks (21 days), the experiment was terminated.

[4] = system: BGC823 human gastric adenocarcinoma; assay: Anti-BGC823 human gastric adenocarcinoma in BALB/c (nu/nu) nude mice; assay type: in vivo; details: for body weight of BGC823-bearing nude mice / tumor volume of BGC823-bearing nude mice: mg/kg BW: total saponins 1.5, Compound 1, combination 1 & 19, 5-FU 20, Sc; for body weight of BGC823-bearing nude mice: in g (unit assumed)
Protocol: Human resources gastric adenocarcinoma cell line BGC823 was cultured in the same condition as the experiment 4.
The body weight and the tumor volume were measured and recorded weekly. The tumor volume was calculated according to the formula below.
Tumors were departed and weighed. Tumor Index and inhibition rate were calculated as below: […]

Q: For COC(=O)C1CC(O[C@H]2CC[C@]3(C)[C@H]4C=CC5[C@@H]6CC(C)(C)CC[C@]6(C(=O)OC6OC(C)C(OC(=O)/C=C/c7ccc(C)cc7)C(OC(C)=O)C6OC6CC(C)C(O)C(O)C6O)[C@H](O)C[C@@]5(C)[C@]4(C)CC[C@H]3[C@]2(C)C=O)C(OC2OC(CO)C(O)C(O)C2O)C(OC2OCC(O)C(O)C2O)C1O (stereo partly shown) [Compound (2), sinocrassuloside VII], which inhibition at 40 µg/mL (HepG2 [1]) is on record?
A: Its inhibition at 40 µg/mL is over 90%.

Q: And the highest inhibition rate (HepG2 [2]; HepG2, 20-80 μg/mL)?
A: The highest inhibition rate was “above 99%”.

Q: What about the IC50 (HepG2 [2]; HepG2, 24 h) of the same compound?
A: The IC50 was 5.25 µM.

Q: And the inhibition at 5 µg/mL (HepG2 [2]; HepG2, 24 h, read-out: Inhibition Rate, HepG2, 5 μg/ml, 24 h)?
A: The inhibition at 5 µg/mL was 13.4 ± 5.76%.

Q: And the inhibition at 10 µg/mL (HepG2 [2]; HepG2, 24 h, read-out: Inhibition Rate, HepG2, 10 μg/ml, 24 h)?
A: Its inhibition at 10 µg/mL is over 80%.

Q: What about the inhibition at 20 µg/mL (HepG2 [2]; HepG2, 24 h, read-out: Inhibition Rate, HepG2, 20 μg/ml, 24 h) of the same compound?
A: Its inhibition at 20 µg/mL is 92.7 ± 2.43%.

Q: What about the inhibition at 40 µg/mL (HepG2 [2]; HepG2, 24 h, read-out: Inhibition Rate, HepG2, 40 μg/ml, 24 h) of the same compound?
A: The inhibition at 40 µg/mL was 90 ± 2.41%.

Q: What about the inhibition at 80 µg/mL (HepG2 [2]; HepG2, 24 h, read-out: Inhibition Rate, HepG2, 80 μg/ml, 24 h) of the same compound?
A: The inhibition at 80 µg/mL was 94.6 ± 2.59%.

Q: What about the IC50 (HepG2 [2]; HepG2, 48 h) of the same compound?
A: The IC50 was 4.56 µM.

Q: What about the inhibition at 5 µg/mL (HepG2 [2]; HepG2, 48 h, read-out: Inhibition Rate, HepG2, 5 μg/ml, 48 h) of the same compound?
A: The inhibition at 5 µg/mL was 16.6 ± 8%.

Q: What about the inhibition at 10 µg/mL (HepG2 [2]; HepG2, 48 h, read-out: Inhibition Rate, HepG2, 10 μg/ml, 48 h) of the same compound?
A: The inhibition at 10 µg/mL was over 80%.

Q: And the inhibition at 20 µg/mL (HepG2 [2]; HepG2, 48 h, read-out: Inhibition Rate, HepG2, 20 μg/ml, 48 h)?
A: Its inhibition at 20 µg/mL is 99.47 ± 0.56%.

Q: And the inhibition at 40 µg/mL (HepG2 [2]; HepG2, 48 h, read-out: Inhibition Rate, HepG2, 40 μg/ml, 48 h)?
A: The inhibition at 40 µg/mL was 98.4 ± 1%.

Q: What about the inhibition at 80 µg/mL (HepG2 [2]; HepG2, 48 h, read-out: Inhibition Rate, HepG2, 80 μg/ml, 48 h) of the same compound?
A: Its inhibition at 80 µg/mL is 98.89 ± 0.68%.

Q: And the early apoptosis signal (HepG2 [3]; control 1.5%)?
A: The early apoptosis signal was 8.5%.

Q: And the “number of necrotic cells” value (HepG2 [3]; control 2.0%)?
A: The value was 6.6%.

Q: What about the “body weight of HepG2-bearing nude mice” value (HepG2 human heptoma; 0 W) of the same compound?
A: The value was 19.50 ± 0.53.

Q: What about the “body weight of HepG2-bearing nude mice” value (HepG2 human heptoma; 1 W) of the same compound?
A: The value was 21.60 ± 0.84.

Q: What about the “tumor volume of HepG2-bearing nude mice” value (HepG2 human heptoma; 1 W) of the same compound?
A: Its value is 564.84 ± 474.95.

Q: What about the “body weight of HepG2-bearing nude mice” value (HepG2 human heptoma; 2 W) of the same compound?
A: The value was 22.40 ± 1.17.

Q: What about the “tumor volume of HepG2-bearing nude mice” value (HepG2 human heptoma; 2 W) of the same compound?
A: Its value is 841.36 ± 577.72.

Q: What about the “body weight of HepG2-bearing nude mice” value (HepG2 human heptoma; 3 W) of the same compound?
A: Its value is 22.70 ± 0.95.

Q: And the “tumor volume of HepG2-bearing nude mice” value (HepG2 human heptoma; 3 W)?
A: The value was 911.76 ± 460.22.

Q: And the Inhibition rate (HepG2 human heptoma; HepG2-bearing nude mice, after 3 weeks, from average tumor mass vs model)?
A: Its Inhibition rate is 87.42% and 87.32%.

Q: What about the “body weight of BGC823-bearing nude mice” value ([4]; 0 W) of the same compound?
A: The value was 20.10 ± 1.10.

Q: And the “tumor volume of BGC823-bearing nude mice” value ([4]; 1 W)?
A: The value was 796.43 ± 563.35.

Q: And the “tumor volume of BGC823-bearing nude mice” value ([4]; 2 W)?
A: Its value is 1186.34 ± 625.68.

Q: And the “body weight of BGC823-bearing nude mice” value ([4]; 2 W)?
A: Its value is 23.00 ± 0.82.

Q: And the “tumor volume of BGC823-bearing nude mice” value ([4]; 3 W)?
A: The value was 1654.23 ± 891.57.

Q: What about the “body weight of BGC823-bearing nude mice” value ([4]; 3 W) of the same compound?
A: Its value is 23.40 ± 1.58.

Q: What about the Inhibition rate ([4]; BGC823-bearing nude mice, after 3 weeks, from average tumor mass vs model) of the same compound?
A: The Inhibition rate was 79.63%.
